Consider one substance from US20170326356A1, “METHODS FOR TREATING PSYCHIATRIC DISORDERS” (priority 2016, published 2017).

Entries after “also recorded” stand apart in the source; their conditions may differ.

Test [1] has as its system offspring of pregnant dams. Put plainly: Analysis of cortical patches (absence of SATB2 or TBR1 expression) in offspring after maternal immune activation. In kind it is in vivo, mice. As for the experimental part:
(§1) Mice were mated overnight and females were checked daily for the presence of seminal plugs, noted as embryonic day 0.5 (E0.5). On E12.5, pregnant female mice were weighed and injected with a single dose (20 mg/kg i.p.) of poly(I:C) (Sigma Aldrich, USA) or PBS vehicle. Each dam was returned to its cage and left undisturbed until the birth of its litter. All pups remained with the mother until weaning on postnatal day 21 (P21), at which time mice were group housed at a maximum of 5 per cage with same-sex littermates. For checking the effect of poly(I:C) administration at different time points during pregnancy, the present inventors injected poly(I:C) into pregnant dams on E12.5, E15.5, or E18.5.
For cryosectioning, animals were intracardially perfused, and the brain was dissected out, fixed with 4% paraformaldehyde in PBS overnight at 4° C., and cryoprotected in 30% sucrose solution. The left hemisphere was marked with a needle and the sections were coronally sliced at 40 μm using a cryostat (Leica, USA). For vibratome sectioning, animals were intracardially perfused, and the brain was fixed with 4% paraformaldehyde in PBS overnight at 4° C. The brains were coronally sliced at 50 μm with a Leica VT1000S vibratome (Leica, USA).
Slices were permeabilized with blocking solution containing 0.4% Triton X-100 and 2% goat serum in PBS for 1 h at room temperature (RT) and then incubated with anti-rabbit-TBR1 (ab31940, Abcam, USA), anti-mouse-SATB2 (ab51502, Abcam, USA), anti-rabbit-PV (PV27, Swant, Switzerland), anti-rabbit-VIP (20077, Immunostar, USA), anti-mouse-NeuN (MAB377X, Millipore, USA), or anti-rabbit-c-Fos (sc-7270, Santa Cruz, USA) antibodies overnight at 4° C. […]
Cortical patches were identified by the absence of SATB2 or TBR1 expression. Spatial locations of the cortical patches were determined based on their distance from the midline of the brain and the layer structures of the cortex. […] The size of the cortical patches was calculated using Zen software (Carl Zeiss, Germany).

Test [2] deals with offspring of pregnant dams. The test is described as follows: Ultrasonic vocalizations of pups. In kind it is in vivo, mice. As to the method: as §1
On postnatal day 9, mouse pup ultrasonic vocalizations (USVs) were detected for 3 min using an Ultra-Sound Gate CM16/CMPA microphone (AviSoft, Germany) and SAS Prolab software (AviSoft, Germany) in a sound attenuation chamber under stable temperature (19-22° C.) and light control (15 lux).

Turning to “polyinosinic:polycytidylic acid [poly(I:C)]”, the “offspring with cortical patches in the S1” value in test [1] (dams injected at E12.5, 20 mg/kg i.p.) is 77%; in test [1] (dams injected at E15.5), 13%; in test [1] (dams injected at E18.5), “none”. Moreover, the “USV calls made by pups upon separation from mothers at P9” value in test [2] (dams injected at E12.5, versus PBS offspring) was “emitted more ultrasonic vocalization (USV) calls”; in test [2] (dams injected at E15.5 or E18.5) it was “This finding was not observed; also recorded: such an increase was not observed”.
